# In patent publication US7629332B2, “Nitrophenyl mustard and nitrophenylaziridine alcohols and their corresponding phosphates and their use as targeted cytotoxic agents” (Auckland Uniservices Limited, priority 2003, dated 2009):
# “Also recorded” adds a separate entry of the source.
# Legend:
# WiDr (NTR+ve) = experiment: Cell proliferation (sulphorhodamine B) IC50, NTR-transfected WiDr human colon cells; assay type: cell-based; conditions: for WiDr WT:NTR IC50 Ratio: 4 h, sensitivity ratio for NTR expression; for IC50: WiDr, 4 h drug exposure, growth 5 further days
# A549 (P450R+ve) = experiment: Cell proliferation (sulphorhodamine B) IC50, P450R-transfected A549 human lung cells, anoxia vs 20% O2; assay type: cell-based; conditions: for A549 (P450R+ve) 20% O2/anoxia IC50 Ratio: 4 h, sensitivity ratio for hypoxia; for IC50: A549, 4 h drug exposure under 0% oxygen
# [1] = system: WiDr human colon carcinoma xenografts (90% NTR-ve and 10% NTR+ve); experiment: WiDr in vivo growth delay assay, mixed WiDr WT / WiDr NTR xenografts; conditions: single dose at MTD (750 μmol/kg), xenografts treated at 300 mm3
# Source text: FIG. 2a depicts in vivo activity of compound IIb-7 and its corresponding phosphate pre-prodrug, Ib-7P, against human colon carcinoma xenografts grown by inoculating mixtures of 90% NTR−ve and 10% NTR+ve Wi Dr cells;
# FIG. 2b are plots of % animals survival versus time (days), in which open circles denote wild-type WiDR human colon carcinoma xenografts, and filled circles denote tumours containing WiDr cells transfected with the E. coli NTR gene;
# In the WiDr in vivo growth delay assay, xenografts containing mixtures of WiDr^WT and WiDr^NTR cells are grown to 300 mm^3 and treated with a single dose of prodrug at its MTD. Tumour growth is monitored over time and animals are euthanased when mean tumour volume >1600 mm^3. Data is presented as time to death.
# in vivo = conditions: mouse
# [2] = system: SiHa human tumour xenografts; experiment: SiHa xenograft excision / clonogenic assay, with or without 15 Gy radiation; assay type: in vivo; conditions: for Activity against hypoxic cells: 20% of respective MTDs, after radiation
# Rif-1 tumour = experiment: In vivo excision assay with the Rif-1 tumour (15 Gy)
# Method: FIG. 1b depicts an excision assay method: 300-500 mg Rif-1 xenograft→ 15 Gy→ Single prodrug dose @ MTD→ 18 hr→ excision→ disaggregate→ plate 10^2-10^5 cells→ 12 days→ colonies counted;
# This employs an in vivo excision assay with the Rif-1 tumour, where the oxic tumour cells are sterilised using 15 Gy of radiation, and the cytotoxicity of an agent against the remaining hypoxic cells can be quantitated. […] Thus Ib-7P acts as a hypoxia-selective cytotoxin in vivo.
# [3] = 75% of MTD, single i.p. dose, no radiation, relative to vehicle controls, excision 18 h
Structure (SMILES),WiDr WT:NTR IC50 Ratio (WiDr (NTR+ve)),IC50 (WiDr (NTR+ve)) [µM],A549 (P450R+ve) 20% O2/anoxia IC50 Ratio (A549 (P450R+ve)),IC50 (A549 (P450R+ve)) [nM],melting point [°C],also measured
"CS(=O)(=O)c1cc([N+](=O)[O-])c(C(=O)NCCO)cc1N(CCBr)CCBr [IIa-7s, 5-[Bis(2-Bromoethyl)Amino]-N-(2-hydroxyethyl)-4-(Methylsulfonyl)-2-Nitrobenzamide]",35,9.3,109,2100,126 to 127,
"O=C(NCCO)c1cc([N+](=O)[O-])cc([N+](=O)[O-])c1N(CCI)CCI [IIb-14, 2-[Bis(2-Iodoethyl)Amino]-N-(2-Hydroxyethyl)-3,5-Dinitrobenzamide]",12,0.8,27,1000,129 to 131,
"O=C(NCCO)c1cc([N+](=O)[O-])cc([N+](=O)[O-])c1N(CCBr)CCBr [IIb-7, 2-[Bis(2-Bromoethyl)Amino]-N-(2-Hydroxyethyl)-3,5-Dinitrobenzamide]",61,0.3,56,800,,over-all survival [1]: 6%; time to first treatment failure [1]: 17 days; MTD (in vivo): 1000 µmol/kg
"O=C(NCCOP(=O)(O)O)c1cc([N+](=O)[O-])cc([N+](=O)[O-])c1N(CCBr)CCBr [Ib-7P, 2-[[2-[Bis(2-Bromoethyl)Amino]-3,5-Dinitrobenzoyl]Amino]Ethyl Dihydrogen Phosphate]",,,,,,"Log kill, cmpd only, Mean ± sem [2, 3]: 1.20 ± 0.07; Activity against hypoxic cells, Rif-1 excision assay (Rif-1 tumour; single dose at MTD after 15 Gy): exceed that of its parent alcohol (IIb-7); also recorded: more active against hypoxic cells than the reference hypoxic cytotoxin tirapazamine; Activity against oxic tumour cells, Rif-1 excision assay (Rif-1 tumour; single dose at MTD without radiation): significant; over-all survival [1]: 40%; time to first treatment failure [1]: 77 days; MTD (in vivo; CD-1 nude, ip): 750 µmol/kg; MTD (in vivo): 750 µmol/kg"
"CC(Br)CN(CC(C)Br)c1c(C(=O)NCCO)cc([N+](=O)[O-])cc1[N+](=O)[O-] (stereo not drawn) [IIb-7a, 2-[Bis(2-Bromopropyl)Amino]-N-(2-Hydroxyethyl)-3,5-Dinitrobenzamide]",27,0.5,5.3,1000,127 to 130,
"O=C(NCCCO)c1cc([N+](=O)[O-])cc([N+](=O)[O-])c1N(CCCl)CCCl [IIb-3, 2-[Bis(2-Chloroethyl)Amino]-N-(3-Hydroxypropyl)-3,5-Dinitrobenzamide]",59,13.6,9,30000,89 to 91,
"O=C(NCCCCCCO)c1cc([N+](=O)[O-])cc([N+](=O)[O-])c1N1CC1 [IIb-1, 2-(Aziridin-1-yl)-N-(6-Hydroxyhexyl)-3,5-Dinitrobenzamide]",2,61,<1.3,384000,189 to 192,
"O=C(NCCCO)c1cc([N+](=O)[O-])cc([N+](=O)[O-])c1N(CCBr)CCBr [IIb-8, 2-[Bis(2-Bromoethyl)Amino]-N-(3-Hydroxypropyl)-3,5-Dinitrobenzamide]",13,0.4,24,1100,89 to 94,
"O=C(NCCO)c1cc([N+](=O)[O-])cc([N+](=O)[O-])c1N(CCCl)CCCl [IIb-2, 2-[Bis(2-Chloroethyl)Amino]-N-(2-Hydroxyethyl)-3,5-Dinitrobenzamide]",47,11.8,20,18000,109 to 111,
"Nc1n[n+]([O-])c2ccccc2[n+]1[O-] [Tirapazamine, reference compound]",,,,,,"Activity against hypoxic cells [2]: lacked activity; Log kill, cmpd only, Mean ± sem ([2]; in vivo, ip): −0.02 ± 0.01; MTD (in vivo; CD-1 nude, ip): 316 µmol/kg"
"N[C@@H](Cc1ccc(N(CCCl)CCCl)cc1)C(=O)O [Melphalan, reference compound]",,,,,,"Activity against hypoxic cells [2]: lacked activity; MTD (in vivo; CD-1 nude, ip): 42.2 µmol/kg"
"O=C(NCCOP(=O)(O)O)c1cc([N+](=O)[O-])cc([N+](=O)[O-])c1N(CCI)CCI [Ib-14P, 2-[[2-[Bis(2-Iodoethyl)Amino]-3,5-Dinitrobenzoyl]Amino]Ethyl Dihydrogen Phosphate]",,,,,,"Log kill, cmpd only, Mean ± sem [2, 3]: 0.92 ± 0.06; MTD (in vivo; CD-1 nude, ip): 562 µmol/kg"
O=C(NCCCOP(=O)(O)O)c1cc(N(CCCl)CCCl)c([N+](=O)[O-])cc1[N+](=O)[O-],,,,,195 to 200,
"O=C(NCCCCO)c1cc(N(CCBr)CCBr)c([N+](=O)[O-])cc1[N+](=O)[O-] [IIa-9, N-(4-Hydroxybutyl)-5-[Bis(2-Bromoethyl)Amino]-2,4-Dinitrobenzamide]",58,6.4,9.4,22000,123 to 124,
CC(Br)CN(CC(C)Br)c1c(C(=O)NCCOP(=O)(O)O)cc([N+](=O)[O-])cc1[N+](=O)[O-] (stereo not drawn),,,,,157 to 161,
